Assay results from US7795278B2 (sanofi-aventis Deutschland GmbH, priority 2004, dated 2010).

Target: recombinantly expressed human PARP-1 enzyme (Homo sapiens, UniProt P09874)
Experiment: PARP enzyme assay (half-maximum inhibitor concentration)
Assay type: biochemical
Settings: DNA-activated PARP-1, 200 μM NAD, tritium-labeled NAD incorporation, room temperature, 1 hour, pH 8.0
Procedure: Pharmacological Investigations PARP Enzyme Assay
The half-maximum inhibitor concentration is determined by incubating the substances to be tested with the DNA-activated, recombinantly expressed and purified PARP-1 enzyme. Specifically, various concentrations of the test substance are incubated in 50 μl of reaction solution, which contains 50 mM Tris, 5 mM MgCl2, 1 mM DTT, 200 μM NAD, 0.1 mCi/ml tritium-labeled NAD, 0.1 mg/ml DNA, 0.1 mg/ml histones, 2 μg/ml recombinantly expressed human PARP-1 enzyme, pH=8.0, at room temperature for 1 hour. The reaction is stopped by adding 150 μl of 20% trichloroacetic acid, and the radiolabeled protein constituents are precipitated. After incubation on ice for 10 minutes, the labeled, insoluble constituents are separated off through a glass fiber filter and, after washing with 20% trichloroacetic acid three times, the radioactivity incorporated by the PARP-1 enzyme is measured by radioluminescence.
IC-50 values were determined in this way for the following compounds: […]

Chain of recombinantly expressed human PARP-1 enzyme (P09874 whole entry): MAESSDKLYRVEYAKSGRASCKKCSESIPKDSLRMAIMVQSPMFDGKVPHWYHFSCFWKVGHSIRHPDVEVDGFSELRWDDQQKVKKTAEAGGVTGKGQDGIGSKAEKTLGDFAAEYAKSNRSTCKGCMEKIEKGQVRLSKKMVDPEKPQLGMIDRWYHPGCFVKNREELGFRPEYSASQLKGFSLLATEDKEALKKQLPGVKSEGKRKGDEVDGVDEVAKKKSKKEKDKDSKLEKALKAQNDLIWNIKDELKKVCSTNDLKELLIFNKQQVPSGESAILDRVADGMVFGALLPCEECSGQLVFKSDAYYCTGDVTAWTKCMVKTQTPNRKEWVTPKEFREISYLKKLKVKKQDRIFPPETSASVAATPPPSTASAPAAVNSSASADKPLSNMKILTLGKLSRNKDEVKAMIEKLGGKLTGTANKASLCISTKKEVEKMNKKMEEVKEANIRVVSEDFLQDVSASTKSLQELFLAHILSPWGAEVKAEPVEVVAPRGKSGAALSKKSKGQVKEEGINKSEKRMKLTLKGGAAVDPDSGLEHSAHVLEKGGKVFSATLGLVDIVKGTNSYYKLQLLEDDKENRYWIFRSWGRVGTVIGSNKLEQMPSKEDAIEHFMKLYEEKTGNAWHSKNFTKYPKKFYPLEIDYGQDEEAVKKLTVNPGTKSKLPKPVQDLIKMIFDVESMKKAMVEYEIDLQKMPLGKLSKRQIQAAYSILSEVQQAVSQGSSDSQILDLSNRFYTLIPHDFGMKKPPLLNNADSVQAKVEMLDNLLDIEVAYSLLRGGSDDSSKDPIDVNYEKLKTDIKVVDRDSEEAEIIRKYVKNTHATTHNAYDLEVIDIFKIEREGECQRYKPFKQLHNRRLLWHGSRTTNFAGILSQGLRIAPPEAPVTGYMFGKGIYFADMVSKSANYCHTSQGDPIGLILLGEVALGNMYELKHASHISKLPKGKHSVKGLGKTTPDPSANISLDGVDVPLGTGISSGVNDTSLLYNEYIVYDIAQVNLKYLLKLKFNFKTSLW

Compound	IC50
Cn1cc(CNCc2ccc(-c3c[nH]c(=O)c4c3CCCC4)o2)cn1 [Example 77, 4-(5-{[(1-methyl-1H-pyrazol-4-ylmethyl)amino]methyl}furan-2-yl)-5,6,7,8-tetrahydro-2H-isoquinolin-1-one]	0.18 µM
O=C(c1cccc(Nc2c[nH]c(=O)c3c2CCCC3)c1)N1CCN(CC2CC2)CC1 [Example 22, 4-[3-(4-Cyclopropylmethylpiperazine-1-carbonyl)phenylamino]-5,6,7,8-tetrahydro-2H-isoquinolin-1-one]	0.33 µM
Cc1[nH]c(=O)c2c(c1Nc1cccc(OC(F)(F)F)c1)CCCC2 [Example 14, 3-methyl-4-(3-trifluoromethoxy-phenylamino)-5,6,7,8-tetrahydro-2H-isoquinolin-1-one]	1.21 µM
Cc1[nH]c(=O)c2c(c1-c1cccs1)CCCC2 [Example 18, 3-methyl-4-thiophen-2-yl-5,6,7,8-tetrahydro-2H-isoquinolin-1-one]	0.38 µM
O=C1OCc2ccc(Nc3c[nH]c(=O)c4c3CCCC4)cc21 [Example 10]	1.43 µM
CC(=O)c1cccc(Nc2c[nH]c(=O)c3c2CCCC3)c1 [Example 15, 4-(3-acetylphenylamino)-5,6,7,8-tetrahydro-2H-isoquinolin-1-one]	0.69 µM
CCOc1cccc(Nc2c[nH]c(=O)c3c2CCCC3)c1 [Example 11, 4-(3-ethoxyphenylamino)-5,6,7,8-tetrahydro-2H-isoquinolin-1-one]	0.39 µM
CN(C)CCNCc1ccc(-c2c[nH]c(=O)c3c2CCCC3)o1 [Example 65, 4-{5-[(2-dimethylaminoethyl-amino)methyl]furan-2-yl}-5,6,7,8-tetrahydro-2H-isoquinolin-1-one]	0.46 µM
O=c1[nH]cc(-c2ccc(CNCc3ccccc3)o2)c2c1CCCC2 [Example 79, 4-[5-(benzylaminomethyl)furan-2-yl]-5,6,7,8-tetrahydro-2H-isoquinolin-1-one]	0.15 µM
Cn1ccnc1CN(Cc1ccccc1)Cc1ccc(-c2c[nH]c(=O)c3c2CCCC3)o1 [Example 69, 4-(5-{[benzyl(1-methyl-1H-imidazol-2-ylmethyl)amino]-methyl}furan-2-yl)-5,6,7,8-tetrahydro-2H-isoquinolin-1-one]	2.76 µM
Cc1[nH]c(=O)c2c(c1-c1ccc(CNCc3cnn(C)c3)o1)CCCC2 [Example 52, 3-methyl-4-(5-{[(1-methyl-1H-pyrazol-4-ylmethyl)amino]methyl}-furan-2-yl)-5,6,7,8-tetrahydro-2H-isoquinolin-1-one]	0.33 µM
CCCCNC(=O)c1cccc(Nc2c[nH]c(=O)c3c2CCCC3)c1 [Example 20, N-Butyl-3-(1-oxo-1,2,5,6,7,8-hexahydroisoquinolin-4-ylamino)benzamide]	1.28 µM
O=C(NCCNc1ncccn1)c1cncc(-c2c[nH]c(=O)c3c2CCCC3)c1 [Example 33, 5-(1-oxo-1,2,5,6,7,8-hexahydroisoquinolin-4-yl)-N-[2-(pyrimidin-2-ylamino)ethyl]nicotinamide]	3.69 µM
O=C(NCCc1cccnc1)c1cncc(-c2c[nH]c(=O)c3c2CCCC3)c1 [Example 40, 5-(1-oxo-1,2,5,6,7,8-hexahydroisoquinolin-4-yl)-N-(2-pyridin-3-ylethyl)nicotinamide]	4.69 µM
Cc1cc(CNC(=O)c2cncc(-c3c[nH]c(=O)c4c3CCCC4)c2)no1 [Example 34, N-(5-methylisoxazol-3-ylmethyl)-5-(1-oxo-1,2,5,6,7,8-hexahydroisoquinolin-4-yl)nicotinamide]	3.48 µM
O=c1[nH]cc(-c2ccc(CN3CCCC3c3ccccn3)o2)c2c1CCCC2 (stereo not shown) [Example 67, 4-[5-(2-pyridin-2-ylpyrrolidin-1-ylmethyl)furan-2-yl]-5,6,7,8-tetrahydro-2H-isoquinolin-1-one]	0.72 µM
O=C(CNC(=O)c1cncc(-c2c[nH]c(=O)c3c2CCCC3)c1)c1ccccc1 [Example 26, 5-(1-oxo-1,2,5,6,7,8-hexahydroisoquinolin-4-yl)-N-(2-oxo-2-phenylethyl)nicotinamide]	1.47 µM
COc1cccc(CNC(=O)c2cncc(-c3c[nH]c(=O)c4c3CCCC4)c2)c1OC [Example 47, N-(2,3-dimethoxybenzyl)-5-(1-oxo-1,2,5,6,7,8-hexahydroisoquinolin-4-yl)nicotinamide]	3.29 µM
Cc1[nH]c(=O)c2c(c1-c1cccnc1)CCCC2 [Example 19, 3-methyl-4-pyridin-3-yl-5,6,7,8-tetrahydro-2H-isoquinolin-1-one]	0.74 µM
O=c1[nH]cc(Nc2ccc(Cl)nc2)c2c1CCCC2 [Example 12, 4-(6-chloropyridin-3-ylamino)-5,6,7,8-tetrahydro-2H-isoquinolin-1-one]	0.67 µM
Cc1[nH]c(=O)c2c(c1Nc1cccc(S(C)(=O)=O)c1)CCCC2 [Example 7, 4-(3-methanesulfonylphenyl-amino)-3-methyl-5,6,7,8-tetrahydro-2H-isoquinolin-1-one]	0.3 µM
O=C(NCCc1ccccc1)c1cncc(-c2c[nH]c(=O)c3c2CCCC3)c1 [Example 27, 5-(1-oxo-1,2,5,6,7,8-hexahydroisoquinolin-4-yl)-N-phenethyl-nicotinamide]	2.54 µM
4-(6-morpholin-4-ylpyridin-3-yl-amino)-5,6,7,8-tetrahydro-2H-isoquinolin-1-one [Example 4]	6.35 µM
CNC(=O)c1cccc(Nc2c[nH]c(=O)c3c2CCCC3)c1 [Example 2, N-methyl-3-(1-oxo-1,2,5,6,7,8-hexahydroisoquinolin-4-ylamino)-benzamide]	0.27 µM
NS(=O)(=O)c1ccc(CCNC(=O)c2cncc(-c3c[nH]c(=O)c4c3CCCC4)c2)cc1 [Example 44, 5-(1-oxo-1,2,5,6,7,8-hexahydroisoquinolin-4-yl)-N-[2-(4-sulf-amoylphenyl)ethyl]nicotinamide]	8.27 µM

More lines, in order of falling IC50, values ahead:

IC50	Compound
9.83 µM	O=c1[nH]cc(Nc2nc(-c3ccncc3)cs2)c2c1CCCC2 [Example 3, 4-(4-pyridin-4-ylthiazol-2-ylamino)-5,6,7,8-tetrahydro-2H-isoquinolin-1-one]
7.7 µM	O=C(c1cncc(-c2c[nH]c(=O)c3c2CCCC3)c1)N1CCCC1 [Example 25, 4-[5-(pyrrolidine-1-carbonyl)-pyridin-3-yl]-5,6,7,8-tetrahydro-2H-isoquinolin-1-one]
3.85 µM	O=C(NCC1CC(c2ccccc2)=NO1)c1cncc(-c2c[nH]c(=O)c3c2CCCC3)c1 (stereo not shown) [Example 41, 5-(1-oxo-1,2,5,6,7,8-hexahydroisoquinolin-4-yl)-N-(3-phenyl-4,5-dihydroisoxazol-5-ylmethyl)-nicotinamide]
3.77 µM	CC(=O)Nc1ccc(S(=O)(=O)NCc2ccc(-c3c[nH]c(=O)c4c3CCCC4)o2)cc1 [Example 87, N-(4-{[5-(1-oxo-1,2,5,6,7,8-hexahydroisoquinolin-4-yl)furan-2-ylmethyl]sulfamoyl}phenyl)acetamide]
3.13 µM	COc1ccccc1CNC(=O)c1cncc(-c2c[nH]c(=O)c3c2CCCC3)c1 [Example 46, N-(2-methoxybenzyl)-5-(1-oxo-1,2,5,6,7,8-hexahydroisoquinolin-4-yl)nicotinamide]
3.07 µM	O=C(NCc1ccncc1)c1cncc(-c2c[nH]c(=O)c3c2CCCC3)c1 [Example 48, 5-(1-oxo-1,2,5,6,7,8-hexahydroisoquinolin-4-yl)-N-pyridin-4-ylmethylnicotinamide]
1.7 µM	COc1cccc(CNC(=O)c2cncc(-c3c[nH]c(=O)c4c3CCCC4)c2)c1 [Example 45, N-(3-methoxybenzyl)-5-(1-oxo-1,2,5,6,7,8-hexahydroisoquinolin-4-yl)nicotinamide]
1.31 µM	O=c1[nH]cc(Nc2cccc(O)c2)c2c1CCCC2 [Example 1, 4-(3-hydroxyphenylamino)-5,6,7,8-tetrahydro-2H-isoquinolin-1-one]
1.27 µM	O=c1[nH]cc(-c2ccc(CNCc3ccncc3)o2)c2c1CCCC2 [Example 58, 4-(5-{[(pyridin-4-ylmethyl)amino]-methyl}furan-2-yl)-5,6,7,8-tetrahydro-2H-isoquinolin-1-one]
1.03 µM	CS(=O)(=O)c1ccc(CNC(=O)c2cncc(-c3c[nH]c(=O)c4c3CCCC4)c2)cc1 [Example 42, N-(4-methanesulfonylbenzyl)-5-(1-oxo-1,2,5,6,7,8-hexahydroisoquinolin-4-yl)nicotinamide]
0.51 µM	CC(=O)Nc1ccc(CNCc2ccc(-c3c[nH]c(=O)c4c3CCCC4)o2)cc1 [Example 75, N-[4-({[5-(1-oxo-1,2,5,6,7,8-hexahydroisoquinolin-4-yl)furan-2-ylmethyl]amino}methyl)phenyl]-acetamide]
0.42 µM	O=c1[nH]cc(-c2ccc(CNCCN3CCCC3)o2)c2c1CCCC2 [Example 57, 4-{5-[(2-pyrrolidin-1-ylethylamino)-methyl]furan-2-yl}-5,6,7,8-tetrahydro-2H-isoquinolin-1-one]
0.31 µM	O=c1[nH]cc(-c2ccc(CNC3Cc4ccccc4C3)o2)c2c1CCCC2 [Example 70, 4-[5-(indan-2-ylaminomethyl)-furan-2-yl]-5,6,7,8-tetrahydro-2H-isoquinolin-1-one]
0.24 µM	CCCCNCc1ccc(-c2c(C)[nH]c(=O)c3c2CCCC3)o1 [Example 53, 4-(5-butylaminomethylfuran-2-yl)-3-methyl-5,6,7,8-tetrahydro-2H-isoquinolin-1-one]
0.08 µM	Cc1[nH]c(=O)c2c(c1Nc1cccc(C(=O)N(C)C)c1)CCCC2 [Example 13, N,N-dimethyl-3-(3-methyl-1-oxo-1,2,5,6,7,8-hexahydroisoquinolin-4-ylamino)benzamide]
